Measured values as given in ChEMBL document CHEMBL1201862, “PubChem BioAssay data set” (2004).
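96-well plates; 48 h exposure; 5 concentrations. Endpoints by linear interpolation between flanking doses. Not reached: highest tested concentration assigned. The concentration for 50% growth inhibition is given as GI50.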 The source made the active and inactive calls. Rule as the data show it: active = GI50 up to about 1.1 µM and inactive = higher. Where a SMILES comes first, the peptide text is derived from it. The star is where a group is joined. Boc = CC(C)(C)OC(=O)*; Bn = c1ccc(C*)cc1

Key:
Assay in all cases: inhibition of tumour cell growth, NCI panel, 48 h
786-0 = tested on: 786-0
A498 = tested on: A498
BT-549 = tested on: BT-549
CAKI-1 = tested on: CAKI-1
DU-145 = tested on: DU-145
HT-29 = tested on: HT-29
KM12 = tested on: KM12
MDA-N = tested on: MDA-N
NCI-H226 = tested on: NCI-H226
OVCAR-5 = tested on: OVCAR-5
RXF 393 = tested on: RXF 393
SF-268 = tested on: SF-268
SK-MEL-5 = tested on: SK-MEL-5
SK-OV-3 = tested on: SK-OV-3
SNB-19 = tested on: SNB-19
TK-10 = tested on: TK-10
UACC-257 = tested on: UACC-257
UACC-62 = tested on: UACC-62
HL-60 = tested on: HL-60
MOLT-4 = tested on: MOLT-4

| Compound | GI50 (786-0) | GI50 (A498) | GI50 (BT-549) | GI50 (CAKI-1) | GI50 (DU-145) | GI50 (HT-29) | GI50 (KM12) | GI50 (MDA-N) | GI50 (NCI-H226) | GI50 (OVCAR-5) | GI50 (RXF 393) | GI50 (SF-268) | GI50 (SK-MEL-5) | GI50 (SK-OV-3) | GI50 (SNB-19) | GI50 (TK-10) | GI50 (UACC-257) | GI50 (UACC-62) | GI50 (HL-60) | GI50 (MOLT-4) |
| --- | --- | --- | --- | --- | --- | --- | --- | --- | --- | --- | --- | --- | --- | --- | --- | --- | --- | --- | --- | --- |
| O=C(O)c1ccccc1-c1ccccc1C(=O)Nc1ccc2c(c1)Cc1ccccc1-2 | 34.7 µM (inactive) | 19.4 µM (inactive) | 29.9 µM (inactive) | 51.9 µM (inactive) | 38.8 µM (inactive) | 25.5 µM (inactive) | 32.4 µM (inactive) | 27.4 µM (inactive) | 67.6 µM (inactive) | 21.9 µM (inactive) | 46.7 µM (inactive) | 43.1 µM (inactive) | 15.5 µM (inactive) | 59.4 µM (inactive) | 36.1 µM (inactive) | 45.1 µM (inactive) | 28.3 µM (inactive) | 16.7 µM (inactive) | – | – |
| O=[N+]([O-])c1cc2[nH]nnc2c2nonc12 | 38.5 µM (inactive) | – | 11.1 µM (inactive) | 29.7 µM (inactive) | 33.3 µM (inactive) | 29.6 µM (inactive) | 33 µM (inactive) | 20.6 µM (inactive) | 19.3 µM (inactive) | 29 µM (inactive) | – | 59 µM (inactive) | 11.9 µM (inactive) | 46.8 µM (inactive) | 30.7 µM (inactive) | 40.4 µM (inactive) | 22.9 µM (inactive) | > 10 µM (inactive) | 5.45 µM (inactive) | 6.18 µM (inactive) |
| CCOC(=O)OC1C(Br)C2CCC1(C)C2(C)C (centres undefined) | 14.1 µM (inactive) | – | 17.2 µM (inactive) | – | 18.7 µM (inactive) | 6.05 µM (inactive) | 14 µM (inactive) | 15 µM (inactive) | 12 µM (inactive) | 17.7 µM (inactive) | 10.9 µM (inactive) | 13.7 µM (inactive) | 14.5 µM (inactive) | 15.7 µM (inactive) | 14.6 µM (inactive) | 14.2 µM (inactive) | 15.9 µM (inactive) | 17.7 µM (inactive) | 6.21 µM (inactive) | 4.6 µM (inactive) |
| Cc1ccsc1/C=N/Nc1nncc2ccccc12 | 90.2 µM (inactive) | > 100 µM (inactive) | > 100 µM (inactive) | > 100 µM (inactive) | > 100 µM (inactive) | > 100 µM (inactive) | > 100 µM (inactive) | > 100 µM (inactive) | > 100 µM (inactive) | > 100 µM (inactive) | 15.8 µM (inactive) | 93.3 µM (inactive) | 96.4 µM (inactive) | 70.6 µM (inactive) | > 100 µM (inactive) | > 100 µM (inactive) | > 100 µM (inactive) | > 100 µM (inactive) | – | 44.8 µM (inactive) |
| COC(=O)CCCC(=O)C1=NN(c2ccc(Cl)cc2)Cc2ccccc2N1 | 17.6 µM (inactive) | 36.1 µM (inactive) | > 100 µM (inactive) | > 100 µM (inactive) | > 100 µM (inactive) | 98.6 µM (inactive) | > 100 µM (inactive) | – | 51.4 µM (inactive) | > 100 µM (inactive) | 86.1 µM (inactive) | > 100 µM (inactive) | > 100 µM (inactive) | > 100 µM (inactive) | > 100 µM (inactive) | > 100 µM (inactive) | > 100 µM (inactive) | 27.3 µM (inactive) | – | > 100 µM (inactive) |
| COc1cccc(-c2nc(-c3cnccn3)n(COCCO)n2)c1 | > 100 µM (inactive) | – | > 100 µM (inactive) | – | > 100 µM (inactive) | > 100 µM (inactive) | > 100 µM (inactive) | > 100 µM (inactive) | – | > 100 µM (inactive) | > 100 µM (inactive) | > 100 µM (inactive) | > 100 µM (inactive) | > 100 µM (inactive) | > 100 µM (inactive) | > 100 µM (inactive) | > 100 µM (inactive) | > 100 µM (inactive) | > 100 µM (inactive) | > 100 µM (inactive) |
| O=[N+]([O-])c1cccc2nc3ccccc3c(NCCCNc3c4ccccc4nc4cccc([N+](=O)[O-])c34)c12 | 0.0146 µM (active) | – | 0.0855 µM (active) | < 0.0215 µM (active) | < 0.0164 µM (active) | < 0.01 µM (active) | < 0.013 µM (active) | 0.0123 µM (active) | 0.0697 µM (active) | 0.0435 µM (active) | 0.0177 µM (active) | < 0.01 µM (active) | 0.0163 µM (active) | 0.0982 µM (active) | 0.0137 µM (active) | 0.02 µM (active) | 0.0556 µM (active) | 0.0513 µM (active) | 0.12 µM (active) | 0.017 µM (active) |
| Oc1nc2c(c(-c3cccc(Cl)c3)n1)COC/C2=C\c1cccc(Cl)c1 | > 100 µM (inactive) | > 100 µM (inactive) | > 100 µM (inactive) | > 100 µM (inactive) | > 100 µM (inactive) | – | > 100 µM (inactive) | > 100 µM (inactive) | > 100 µM (inactive) | > 100 µM (inactive) | > 100 µM (inactive) | > 100 µM (inactive) | > 100 µM (inactive) | > 100 µM (inactive) | > 100 µM (inactive) | > 100 µM (inactive) | > 100 µM (inactive) | > 100 µM (inactive) | – | > 100 µM (inactive) |
| COC(=O)C1=C(C)NC(C)=C(C(=O)OC)C1c1cccc(/[N+]([O-])=C/c2ccccc2)c1 | 17.7 µM (inactive) | – | 16.3 µM (inactive) | 18.1 µM (inactive) | 78 µM (inactive) | 28.3 µM (inactive) | > 100 µM (inactive) | 17.6 µM (inactive) | > 100 µM (inactive) | > 100 µM (inactive) | 16.4 µM (inactive) | 69.5 µM (inactive) | > 100 µM (inactive) | > 100 µM (inactive) | > 100 µM (inactive) | 38.9 µM (inactive) | 19 µM (inactive) | 28.5 µM (inactive) | 15.3 µM (inactive) | 23.2 µM (inactive) |
| COC1(OC)CC(CO)(CNc2cc(Cl)nc(N)n2)C1 | > 100 µM (inactive) | – | > 100 µM (inactive) | > 100 µM (inactive) | > 100 µM (inactive) | > 100 µM (inactive) | > 100 µM (inactive) | > 100 µM (inactive) | > 100 µM (inactive) | > 100 µM (inactive) | 55.7 µM (inactive) | > 100 µM (inactive) | > 100 µM (inactive) | > 100 µM (inactive) | > 100 µM (inactive) | > 100 µM (inactive) | 39.1 µM (inactive) | > 100 µM (inactive) | > 100 µM (inactive) | > 100 µM (inactive) |
| O=C1C(NCCc2ccc(O)c([N+](=O)[O-])c2)=CC(=O)c2[nH]cnc21 | 47.2 µM (inactive) | 32.1 µM (inactive) | > 10 µM (inactive) | – | – | 34.6 µM (inactive) | 42.9 µM (inactive) | 16.3 µM (inactive) | – | 33.3 µM (inactive) | – | – | 16.2 µM (inactive) | – | 89.5 µM (inactive) | 36.1 µM (inactive) | 18.3 µM (inactive) | 20.8 µM (inactive) | 21.2 µM (inactive) | 19.8 µM (inactive) |
| Cc1ccc(C(=O)Nc2ccc(S(=O)(=O)O)c3cc(S(=O)(=O)O)cc(S(=O)(=O)O)c23)cc1NC(=O)Nc1cc(C(=O)Nc2ccc(S(=O)(=O)O)c3cc(S(=O)(=O)O)cc(S(=O)(=O)O)c23)ccc1C | > 87.5 µM (inactive) | > 87.5 µM (inactive) | > 87.5 µM (inactive) | > 87.5 µM (inactive) | > 87.5 µM (inactive) | > 87.5 µM (inactive) | – | > 87.5 µM (inactive) | > 87.5 µM (inactive) | > 87.5 µM (inactive) | – | > 87.5 µM (inactive) | > 87.5 µM (inactive) | – | > 87.5 µM (inactive) | > 87.5 µM (inactive) | > 87.5 µM (inactive) | > 87.5 µM (inactive) | > 87.5 µM (inactive) | > 87.5 µM (inactive) |
| COC(=O)[C@]1(C)CCC[C@]2(C)[C@@H](CCC(=O)C(C)C)[C@]3(C=O)O[C@@H]3C[C@H]21 | 32.4 µM (inactive) | – | 24.7 µM (inactive) | 14.8 µM (inactive) | 39.4 µM (inactive) | 38.9 µM (inactive) | 34.3 µM (inactive) | 23.6 µM (inactive) | 60.1 µM (inactive) | > 100 µM (inactive) | 19 µM (inactive) | 44.1 µM (inactive) | 31.1 µM (inactive) | 35.6 µM (inactive) | 37.2 µM (inactive) | 51.8 µM (inactive) | 37.9 µM (inactive) | 50.2 µM (inactive) | 40.1 µM (inactive) | 29.9 µM (inactive) |
| COC(=O)C(CC(C)C)NC(=O)C(C)NC(=O)C(Cc1ccc(OCc2ccccc2)cc1)NC(=O)C(COCc1ccccc1)NC(=O)OC(C)(C)C (centres undefined) (Boc-S(Bn)Y(Bn)AL-OMe; configuration not given here) | > 100 µM (inactive) | – | > 100 µM (inactive) | > 100 µM (inactive) | > 100 µM (inactive) | > 100 µM (inactive) | > 100 µM (inactive) | > 100 µM (inactive) | > 100 µM (inactive) | > 100 µM (inactive) | > 100 µM (inactive) | > 100 µM (inactive) | > 100 µM (inactive) | > 100 µM (inactive) | > 100 µM (inactive) | > 100 µM (inactive) | – | 96.6 µM (inactive) | 41.2 µM (inactive) | 96.2 µM (inactive) |
| C=C1C/C(=C/C)C(=O)O[C@@H]2CCN3CC=C(COC(=O)[C@]1(C)O)[C@H]23 [SENECIPHYLLINE] | > 100 µM (inactive) | > 100 µM (inactive) | > 100 µM (inactive) | > 100 µM (inactive) | > 100 µM (inactive) | > 100 µM (inactive) | > 100 µM (inactive) | > 100 µM (inactive) | 35.5 µM (inactive) | > 100 µM (inactive) | – | > 100 µM (inactive) | > 100 µM (inactive) | > 100 µM (inactive) | > 100 µM (inactive) | > 100 µM (inactive) | > 100 µM (inactive) | > 100 µM (inactive) | > 100 µM (inactive) | – |
